Experimental data taken from US5324648A, “Substituted isocoumarins as serine protease inhibitors and anti-inflammatory agents” (Georgia Tech Research Corporation, priority 1992, dated 1994).

How the values were obtained:
[1] = biological target: T1, chymotrypsin (Bos taurus, UniProt P00766); test: Inactivation of chymotrypsin; type: biochemical, bovine; conditions: Table XIII; pH 7.5, 25° C; [I] 20-400 μM; read-out: kobs/[I]
[2] = biological target: T2, cathepsin G (Homo sapiens, UniProt P08311); test: Inactivation of cathepsin G; type: biochemical; conditions: Table XIII; [I] 75-400 μM
T2 construct: from tissue; host or cells: human leukocytes
T2 sequence (P08311 21-255): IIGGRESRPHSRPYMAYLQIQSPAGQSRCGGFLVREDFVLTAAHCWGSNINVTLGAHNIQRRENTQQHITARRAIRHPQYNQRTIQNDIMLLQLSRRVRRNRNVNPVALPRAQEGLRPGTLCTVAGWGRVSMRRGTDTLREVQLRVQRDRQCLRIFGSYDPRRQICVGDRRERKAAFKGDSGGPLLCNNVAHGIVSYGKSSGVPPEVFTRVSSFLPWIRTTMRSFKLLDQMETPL

[3] = tested on: rat granule chymase; test: Inhibition of rat granule chymase; type: biochemical; conditions: Table XIV, not time dependent
Method: (§1) ^a Inhibition was measured at 0.1M Hepes, 0.5M NaCl, pH 7.5 buffer,
(§2) 10% Me2 SO and 25° C. Suc--Phe--Leu--PheSBzl (0.14 mM) and
(§3) ZGly--ArgSBzl (0.06 mM) were used to measure chymase and tryptase activit

[4] = biological target: rat granule tryptase; test: Inhibition of rat granule tryptase; type: biochemical; conditions: Table XIV
Method: as §1, §2, §3

[5] = biological target: T1, chymotrypsin; test: Reactivation of inhibited chymotrypsin; type: biochemical, bovine
Method: (§4) ^a Inhibition was performed at 0.1M Hepes, 0.5M NaCl, pH 7.5 buffer,
(§5) 10% Me2 SO and 25° C. Reactivation was carried out in the
presence of 0.36M of NH2 OH, and occurred immediately after the
^b Enzyme activity was measured after two days.

[6] = tested on: rat granule chymase; test: Reactivation of inhibited rat granule chymase; type: biochemical; conditions: [I] 39 μM; +NH2OH 0.36M
Method: as §4, §5
presence of 0.36M of NH2 OH, and occurred immediately after the […]

[7] = [I] 39 μM, in buffer, after two days
[8] = [I] 78 μM, in buffer, after two days

Row | SMILES | kinact/KI [1] | inhibition [2] | % of inhibition ([3]; [I] 0.078 mM) | kobs/[I] ([4]; [I] 0.078 mM) | % of Enzyme Activity Reactivated ([5]; [I] 39 μM, +NH2OH 0.36M) | % of Enzyme Activity Reactivated [5, 7] | % of Enzyme Activity Reactivated ([5]; [I] 78 μM, +NH2OH 0.36M) | % of Enzyme Activity Reactivated [5, 8] | % of Enzyme Activity Reactivated [6] | % of inhibition ([3]; [I] 0.2 mM) | kobs/[I] ([4]; [I] 0.2 mM)
1 | O=C(CCCC[C@@H]1SC[C@@H]2NC(=O)N[C@@H]21)NCCCCCC(=O)Nc1ccc2c(Cl)c(OCCc3ccccc3)oc(=O)c2c1 [7-(6-biotinylaminocaproyl)amino-4-chloro-3-(2-phenylethoxy)isocoumarin] | 1080 M⁻¹ s⁻¹ | 13% | 30-50% | 6 to 12 M⁻¹ s⁻¹ | 50% | 6% | 40% | 0% | 30-50% | – | –
2 | O=C(CCCC[C@@H]1SC[C@@H]2NC(=O)N[C@@H]21)Nc1ccc2c(Cl)c(OCCc3ccccc3)oc(=O)c2c1 [7-biotinylamino-4-chloro-3-(2-phenylethoxy)isocoumarin] | – | – | – | – | 85% | 51% | 79% | 7% | 100% | 10-20% | 2 to 3 M⁻¹ s⁻¹
